Values quoted from earlier work in patent publication US7452892B2, “Triazolopyrimidine cannabinoid receptor 1 antagonists” (Bristol-Myers Squibb Company, priority 2005, dated 2008).

Experiments:
[1] = 16 week trial period
[2] = chronic administration for two weeks

Structure (SMILES) | body weight in human subjects [1] | body weight [2]
Cc1c(C(=O)NN2CCCCC2)nn(-c2ccc(Cl)cc2Cl)c1-c1ccc(Cl)cc1 [SR-141716] | dose-dependently reduced body weight | 
Cc1c(C(=O)NN2CCCCC2)nn(-c2ccc(Cl)cc2Cl)c1-c1ccc(I)cc1 [AM-251] |  | substantial body weight reduction
